Test results as given in patent publication US20260022142A1, “MACROCYCLIC IMMUNOMODULATORS” (Bristol-Myers Squibb Company, priority 2022, published 2026).
pIC50: −log10 of the molar value. Bridge positions count the residues as written; N and C are the ends. Square brackets hold non-standard residues; d marks the D form. Peptide text beside a SMILES is read from it. * marks the point of attachment. ξ: configuration not given here. Phe(4-CH2CH2COOH) = N[C@@H](Cc1ccc(CCC(=O)O)cc1)C(=O)O; Phe(4-COOH) = N[C@@H](Cc1ccc(C(=O)O)cc1)C(=O)O; Bip = N[C@@H](Cc1ccc(-c2ccccc2)cc1)C(=O)O; Phe(3-Me) = Cc1cccc(C[C@H](N)C(=O)O)c1; Phe(4-F) = N[C@@H](Cc1ccc(F)cc1)C(=O)O; Val(3-OH) = CC(C)(O)[C@H](N)C(=O)O; hArg = N=C(N)NCCCC[C@H](N)C(=O)O; 4Pal = N[C@@H](Cc1ccncc1)C(=O)O; Cha = N[C@@H](CC1CCCCC1)C(=O)O; Cit = NC(=O)NCCC[C@H](N)C(=O)O; Thr(3ξ) = CC(O)[C@H](N)C(=O)O; Tle = CC(C)(C)[C@H](N)C(=O)O; 12Ado = NCCCCCCCCCCCC(=O)O; dNle = CCCC[C@@H](N)C(=O)O; Carboxymethyl = O=C(O)C*; Orn = NCCC[C@H](N)C(=O)O; Aun = NCCCCCCCCCCC(=O)O; Dab = NCC[C@H](N)C(=O)O; Dap = NC[C@H](N)C(=O)O; AEEA = NCCOCCOCC(=O)O; Ac3c = NC1(C(=O)O)CC1; Piv = CC(C)(C)C(=O)*

Target: T1, PD-1/PD-L1 interaction (PE-labeled human PD-L1-Ig binding to Jurkat cell line over-expressing human PD-1) (Homo sapiens, UniProt Q15116)
T1 construct: expressed in transfected cells; host or cells: Jurkat
Assay: Jurkat-PD-1 Cell Binding High-Content Screening Assay (CBA)
Type: cell-based
Settings: Jurkat cell line over-expressing human PD-1; PE-labeled PD-L1-Ig 20 nM final; read-out: Jurkat hPD1-PDL1 IC50
Outline: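 Read-out is high-content imaging of cell-bound phycoerythrin-tagged PD-L1-Ig on fixed, Hoechst-counterstained Jurkat cells that over-express human PD-1. Compound exposure lasts 2 h at 37° C before the labeled ligand (20 nM final) is added for a further hour.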

T1 sequence (Q15116 25-288): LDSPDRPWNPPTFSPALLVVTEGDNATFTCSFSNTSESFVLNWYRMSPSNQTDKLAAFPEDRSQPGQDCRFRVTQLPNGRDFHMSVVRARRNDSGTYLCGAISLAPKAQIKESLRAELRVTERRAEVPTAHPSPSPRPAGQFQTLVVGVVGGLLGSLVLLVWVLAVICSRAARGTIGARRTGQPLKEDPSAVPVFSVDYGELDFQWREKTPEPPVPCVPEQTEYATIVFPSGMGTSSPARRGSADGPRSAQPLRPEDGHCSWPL

pIC50 | Compound
7.74 | CC(C)C[C@H]1NC(=O)[C@H](CCCN)NC(=O)[C@H](C(C)C)NC(=O)[C@H](Cc2ccc(-c3ccccc3)cc2)NC(=O)[C@H](C(C)C)NC(=O)[C@H](Cc2c[nH]c3ccccc23)NC(=O)[C@H](CC(=O)O)NC(=O)[C@H](Cc2ccc(C(=O)O)cc2)NC(=O)[C@H](Cc2ccc(OCC(=O)O)cc2)NC(=O)CSC[C@@H](C(=O)NCCOCCOCC(=O)N[C@@H](CCCCN)C(=O)NCCCCCCCCCCC(=O)O)NC(=O)[C@H](CCCCN)NC(=O)[C@H](C(C)C)NC(=O)[C@H](CC2CCCCC2)NC(=O)[C@H](CCN)NC1=O [Compound 2593] ({CH2CO}-Y(Carboxymethyl)[Phe(4-COOH)]DWV[Bip]V[Orn][dL][Dab][Cha]VKC[AEEA]K[Aun]-OH; thioether N-14)
7.31 | Cc1cccc(C[C@@H]2NC(=O)[C@H](CC(=O)O)NC(=O)[C@H](Cc3ccc(OCC(=O)O)cc3)NC(=O)[C@H](CCCNC(=N)N)NC(=O)CSC[C@@H](C(=O)N[C@@H](CCN)C(=O)NCCCCCCCCCCC(=O)O)NC(=O)[C@H](CO)NC(=O)[C@H](C(C)(C)C)NC(=O)[C@H](CC3CCCCC3)NC(=O)[C@H](CCN)NC(=O)[C@@H](CC(C)C)NC(=O)[C@H](CCCN)NC(=O)[C@H](Cc3ccc(OCC(=O)O)cc3)NC(=O)[C@H](Cc3ccc(-c4ccccc4)cc3)NC(=O)[C@H](Cc3c[nH]c4ccccc34)NC2=O)c1 [Compound 3531] ({CH2CO}-RY(Carboxymethyl)D[Phe(3-Me)]W[Bip]Y(Carboxymethyl)[Orn][dL][Dab][Cha][Tle]SC[Dab][Aun]-OH; thioether N-14)
7.42 | Cc1cccc(C[C@@H]2NC(=O)[C@H](CC(=O)O)NC(=O)[C@H](Cc3ccc(OCC(=O)O)cc3)NC(=O)[C@H](CCCNC(=N)N)NC(=O)CSC[C@@H](C(=O)N[C@H](CC(N)=O)C(=O)NCCCCCCCCCCC(=O)O)NC(=O)[C@H](C(C)O)NC(=O)[C@H](C(C)C)NC(=O)[C@H](CC3CCCCC3)NC(=O)[C@H](CCN)NC(=O)[C@@H](CC(C)C)NC(=O)[C@H](CCCNC(=N)N)NC(=O)[C@H](CCCCNC(=O)C(C)(C)C)NC(=O)[C@H](Cc3ccc(-c4ccccc4)cc3)NC(=O)[C@H](Cc3ccc(O)cc3)NC2=O)c1 (stereo partly drawn) [Compound 3542] ({CH2CO}-RY(Carboxymethyl)D[Phe(3-Me)]Y[Bip]K(Piv)R[dL][Dab][Cha]V[Thr(3ξ)]C[dN][Aun]-OH; thioether N-14)
7.76 | CCCC[C@H]1NC(=O)[C@H](CCCN)NC(=O)[C@H](C(C)C)NC(=O)[C@H](Cc2ccc(-c3ccccc3)cc2)NC(=O)[C@H](C(C)C)NC(=O)[C@H](Cc2cccc(C)c2)NC(=O)[C@H](CC(=O)O)NC(=O)[C@H](Cc2ccc(OCC(=O)O)cc2)NC(=O)[C@H](CN)NC(=O)CSC[C@@H](C(=O)N[C@@H](CCN)C(=O)NCCOCCOCC(=O)NCCCCCCCCCCC(=O)O)NC(=O)[C@H](CCCNC(=N)N)NC(=O)[C@H](C(C)C)NC(=O)[C@H](CC2CCCCC2)NC(=O)[C@H](CCN)NC1=O [Compound 2682] ({CH2CO}-[Dap]Y(Carboxymethyl)D[Phe(3-Me)]V[Bip]V[Orn][dNle][Dab][Cha]VRC[Dab][AEEA][Aun]-OH; thioether N-14)
7.94 | Cc1cccc(C[C@@H]2NC(=O)[C@H](CC(=O)O)NC(=O)[C@H](Cc3ccc(OCC(=O)O)cc3)NC(=O)[C@H](CCCNC(=N)N)NC(=O)CSC[C@@H](C(=O)NC3(C(=O)NCCCCCCCCCCC(=O)O)CC3)NC(=O)[C@H]([C@@H](C)O)NC(=O)[C@H](C(C)C)NC(=O)[C@H](CC3CCCCC3)NC(=O)[C@H](CCN)NC(=O)[C@@H](CC(C)C)NC(=O)[C@H](CCCN)NC(=O)[C@H](Cc3ccc(OCC(=O)O)cc3)NC(=O)[C@H](Cc3ccc(-c4ccccc4)cc3)NC(=O)[C@H](Cc3ccc(CCC(=O)O)cc3)NC2=O)c1 [Compound 2132] ({CH2CO}-RY(Carboxymethyl)D[Phe(3-Me)][Phe(4-CH2CH2COOH)][Bip]Y(Carboxymethyl)[Orn][dL][Dab][Cha]VTC[Ac3c][Aun]-OH; thioether N-14)
7.34 | Cc1cccc(C[C@@H]2NC(=O)[C@H](CC(=O)O)NC(=O)[C@H](Cc3ccc(OCC(=O)O)cc3)NC(=O)CNC(=O)CSC[C@@H](C(=O)N[C@@H](CCN)C(=O)NCCCCCCCCCCC(=O)O)NC(=O)[C@H](CO)NC(=O)[C@H](C(C)(C)O)NC(=O)[C@H](CC3CCCCC3)NC(=O)[C@H](CCN)NC(=O)[C@@H](CC(C)C)NC(=O)[C@H](CCCN)NC(=O)[C@H](Cc3ccc(OCC(=O)O)cc3)NC(=O)[C@H](Cc3ccc(-c4ccccc4)cc3)NC(=O)[C@H](Cc3ccc(OCC(=O)O)cc3)NC2=O)c1 [Compound 2209] ({CH2CO}-GY(Carboxymethyl)D[Phe(3-Me)]Y(Carboxymethyl)[Bip]Y(Carboxymethyl)[Orn][dL][Dab][Cha][Val(3-OH)]SC[Dab][Aun]-OH; thioether N-14)
8.02 | Cc1cccc(C[C@@H]2NC(=O)[C@H](CC(=O)O)NC(=O)[C@H](Cc3ccc(OCC(=O)O)cc3)NC(=O)[C@H](CN)NC(=O)CSC[C@@H](C(=O)NCCOCCOCC(=O)NCCCCCCCCCCC(=O)O)NC(=O)[C@H](CCCN)NC(=O)[C@H](C(C)C)NC(=O)[C@H](CC3CCCCC3)NC(=O)[C@H](CCN)NC(=O)[C@@H](CC(C)C)NC(=O)[C@H](CCCN)NC(=O)[C@H](CCC(=O)O)NC(=O)[C@H](Cc3ccc(-c4ccccc4)cc3)NC(=O)[C@H](C(C)C)NC2=O)c1 [Compound 2667] ({CH2CO}-[Dap]Y(Carboxymethyl)D[Phe(3-Me)]V[Bip]E[Orn][dL][Dab][Cha]V[Orn]C[AEEA][Aun]-OH; thioether N-14)
7.25 | Cc1cccc(C[C@@H]2NC(=O)[C@H](CC(=O)O)NC(=O)[C@H](Cc3ccc(C(=O)O)cc3)NC(=O)[C@H](Cc3ccncc3)NC(=O)CSC[C@@H](C(=O)N[C@@H](CCN)C(=O)NCCOCCOCC(=O)NCCCCCCCCCCC(=O)O)NC(=O)[C@H](CO)NC(=O)[C@H](C(C)(C)O)NC(=O)[C@H](CC3CCCCC3)NC(=O)[C@H](Cc3cnc[nH]3)NC(=O)[C@@H](CC(C)C)NC(=O)[C@H](CCC(N)=O)NC(=O)[C@H](Cc3ccc(OCC(=O)O)cc3)NC(=O)[C@H](Cc3ccc(-c4ccccc4)cc3)NC(=O)[C@H](Cc3ccc(OCC(=O)O)cc3)NC2=O)c1 [Compound 3749] ({CH2CO}-[4Pal][Phe(4-COOH)]D[Phe(3-Me)]Y(Carboxymethyl)[Bip]Y(Carboxymethyl)Q[dL]H[Cha][Val(3-OH)]SC[Dab][AEEA][Aun]-OH; thioether N-14)
6.94 | Cc1cccc(C[C@@H]2NC(=O)[C@H](CC(=O)O)NC(=O)[C@H](Cc3ccc(OCC(=O)O)cc3)NC(=O)[C@H](Cc3ccncc3)NC(=O)CSC[C@@H](C(=O)N[C@@H](CCN)C(=O)NCCCCCCCCCCC(=O)O)NC(=O)[C@H](CO)NC(=O)[C@H](C(C)(C)O)NC(=O)[C@H](CC3CCCCC3)NC(=O)[C@H](Cc3c[nH]cn3)NC(=O)[C@@H](CC(C)C)NC(=O)[C@H](CCCN)NC(=O)[C@H](Cc3ccc(OCC(=O)O)cc3)NC(=O)[C@H](Cc3ccc(-c4ccccc4)cc3)NC(=O)[C@H](Cc3ccc(F)cc3)NC2=O)c1 [Compound 3733] ({CH2CO}-[4Pal]Y(Carboxymethyl)D[Phe(3-Me)][Phe(4-F)][Bip]Y(Carboxymethyl)[Orn][dL]H[Cha][Val(3-OH)]SC[Dab][Aun]-OH; thioether N-14)
7.90 | CC(C)C[C@H]1NC(=O)[C@H](CCCN)NC(=O)[C@H](Cc2ccc(O)cc2)NC(=O)[C@H](Cc2ccc(-c3ccccc3)cc2)NC(=O)[C@H](C(C)C)NC(=O)[C@H](Cc2c[nH]c3ccccc23)NC(=O)[C@H](CC(=O)O)NC(=O)[C@H](Cc2ccc(OCC(=O)O)cc2)NC(=O)[C@H](CN)NC(=O)CSC[C@@H](C(=O)N[C@@H](CCN)C(=O)NCCOCCOCC(=O)NCCCCCCCCCCC(=O)O)NC(=O)[C@H](CCCN)NC(=O)[C@H](C(C)C)NC(=O)[C@H](CC2CCCCC2)NC(=O)[C@H](CCN)NC1=O [Compound 1290] ({CH2CO}-[Dap]Y(Carboxymethyl)DWV[Bip]Y[Orn][dL][Dab][Cha]V[Orn]C[Dab][AEEA][Aun]-OH; thioether N-14)
7.48 | Cc1cccc(C[C@@H]2NC(=O)[C@H](CC(=O)O)NC(=O)[C@H](Cc3ccc(OCC(=O)O)cc3)NC(=O)[C@H](CCCCNC(=N)N)NC(=O)CSC[C@@H](C(=O)N[C@@H](CCN)C(=O)NCCCCCCCCCCCC(=O)O)NC(=O)[C@H](C(C)O)NC(=O)[C@H](C(C)C)NC(=O)[C@H](CC3CCCCC3)NC(=O)[C@H](CCN)NC(=O)[C@@H](CC(C)C)NC(=O)[C@H](CCCN)NC(=O)[C@H](CCCNC(N)=O)NC(=O)[C@H](Cc3ccc(-c4ccccc4)cc3)NC(=O)[C@H](C(C)C)NC2=O)c1 (stereo partly drawn) [Compound 3551] ({CH2CO}-[hArg]Y(Carboxymethyl)D[Phe(3-Me)]V[Bip][Cit][Orn][dL][Dab][Cha]V[Thr(3ξ)]C[Dab][12Ado]-OH; thioether N-14)
8.06 | Cc1cccc(C[C@@H]2NC(=O)[C@H](CC(=O)O)NC(=O)[C@H](Cc3ccc(OCC(=O)O)cc3)NC(=O)[C@H](Cc3ccncc3)NC(=O)CSC[C@@H](C(=O)N[C@@H](CCN)C(=O)NCCOCCOCC(=O)NCCOCCOCC(=O)NCCCCCCCCCCC(=O)O)NC(=O)[C@H](CCC(=O)O)NC(=O)[C@H](C(C)(C)O)NC(=O)[C@H](CC3CCCCC3)NC(=O)[C@H](CCN)NC(=O)[C@@H](CC(C)C)NC(=O)[C@H](CCCN)NC(=O)[C@H](Cc3ccc(C(=O)O)cc3)NC(=O)[C@H](Cc3ccc(-c4ccccc4)cc3)NC(=O)[C@H](Cc3ccc(C(=O)O)cc3)NC2=O)c1 [Compound 3741] ({CH2CO}-[4Pal]Y(Carboxymethyl)D[Phe(3-Me)][Phe(4-COOH)][Bip][Phe(4-COOH)][Orn][dL][Dab][Cha][Val(3-OH)]EC[Dab][AEEA][AEEA][Aun]-OH; thioether N-14)
